# Test: PCNB concentration after gamma irradiation in samples of P. quinquefolium and in methanol solution
# Format: physicochemical
# Conditions: for concentration of the remaining PCNB / concentration of the remaining PCNB as compared to before treatment: 2 ppm PCNB in methanol solution
# [1] = P. quinquefolium samples containing 2 ppm PCNB, 20 kGy
smiles,measurement,setting,value
"O=[N+]([O-])c1c(Cl)c(Cl)c(Cl)c(Cl)c1Cl [PCNB, pentachloronitrobenzene]",concentration of the remaining PCNB,20 kGy,0.056 ppm
same,concentration of the remaining PCNB as compared to before treatment,20 kGy,2.79%
same,concentration of the remaining PCNB,25 kGy,0.008 ppm
same,concentration of the remaining PCNB as compared to before treatment,25 kGy,0.86%
same,PCNB concentration as % of the original concentration,[1],4.01%
same,PCNB concentration remaining,[1],0.08 ppm

# From patent publication US20070281046A1, “Method for removing organic contaminants from Chinese herb medicines” (Committee on Chinese Medicine and Pharmacy, Department of …, priority 2006, published 2007)
